Assay results taken from patent US20170319552A1, “ATROPISOMERS OF TRIAZOLE DERIVATIVE” (ARDEA BIOSCIENCES, INC., priority 2016, published 2017).
Where two headings read alike, the source gives them in different places.

How the values were obtained:
recombinant human CYP2C9 = recombinant human CYP2C9 (Homo sapiens, UniProt P11712); test: Metabolite formation with recombinant human CYP2C9; format: in vitro ADME
Description: (§1) The formation of M3, M3c, M4 and M6 from each atropisomer in liver microsomal and recombinant CYP incubations was determined, based on the peak area ratio of analyte over internal standard (IS)

[1] = In vitro metabolism, human liver microsomes in the presence of mEH inhibitor valpromide; format: in vitro ADME
Description: (§2) Human liver microsomes (0.5 mg/mL; mixed gender, ultrapooled, BD Biosciences, catalog number 452117) were incubated at 37±1° C. in 0.2 mL (final volume) of incubation mixtures containing potassium phosphate buffer (100 mM, pH7.4), MgCl2 (3 mM), NADPH (1 mM), atropisomer (1, 10, or 50 μM) and valpromide (0, 50, or 100 μM) (all experiments performed in duplicate). Reactions were initiated by addition of NADPH solution and terminated at predetermined time point (30 min) by addition of stop reagent (300 μL chilled acetonitrile containing 0.1 μM of 7-hydroxycoumarin as an internal standard). After incubation, microsomal proteins were precipitated by centrifugation at 3300×g for 15 min at 4° C. Supernatant fractions were analyzed by LC-MS/MS.
(§3) HPLC mass spectrometer system: An API4000 triple quadrupole mass spectrometer equipped with electrospray ionization ion source was used for quantitation and operated in positive mode. The HPLC system consisted of a CTC Analytics PAL autosampler, an Agilent 1100 series degasser (G1379A), and an Agilent 1100 series binary pump (G1312A). […]
as §1

[2] = Atropisomer interconversion, thermal challenge in aqueous solvent (dilute sodium bicarbonate); format: physicochemical
Description: (§4) The individual atropisomers of Compound (I), atropisomer 1 and atropisomer 2 (elution order from normal-phase chiral chromatography) were exposed to various conditions, including thermal challenge in both organic and aqueous media and exposure to simulated biological conditions, to ascertain whether they readily interconvert.
Atropisomer 1 was dissolved in dilute aqueous sodium bicarbonate solution. Atropisomer 2 was dissolved in dilute aqueous sodium bicarbonate solution. […] Samples of the resulting solutions were exposed to room temperature (rt), 60° C., and 100° C. for four days. After four days, the samples were concentrated to dryness (SpeedVac evaporator—DNA120, property H001630), redissolved in acetonitrile and analyzed by high performance liquid chromatography (AGMS02 Agilent 1100) on a normal phase amylose-based chiral column (ChiralPak IA-3, 3 μm, 100×4.6 mm, column 244), using isocratic elution and UV detection at 226 nm (see example 1). […] Sample chromatograms at t0, 60° C., and 100° C. after four days, are depicted in FIG. 3A, FIG. 3B and FIG. 3C respectively.

[3] = In vitro metabolism, incubations with human liver microsomes; format: in vitro ADME
Description: as §2, with “and the atropisomers” for “atropisomer”, “50” for “50 μM) and valpromide (0, 50, or 100”, “duplicate). Stock solutions of atropisomers were prepared with DMSO at 100 mM. The final concentration of DMSO in the incubation was at or less than 0.05%.” for “duplicate).”
as §3, §1

[4] = Atropisomer interconversion, thermal challenge in organic solvent (acetonitrile); format: physicochemical
Description: as §4
Samples of each separate atropisomers were held at 60° C. for four days and then analyzed by high performance liquid chromatography (AGMS02 Agilent 1100) on a normal phase amylose-based chiral column (ChiralPak IA-3, 3 μm, 100×4.6 mm, column 244), using isocratic elution and UV detection at 226 nm (see example 1).

[5] = In vivo human metabolism, plasma and urine pharmacokinetics after single oral dose of racemic Compound (I); conditions: human
Description: Plasma samples were collected prior to dosing (within 30 minutes before dosing) and at the following timepoints: 0.5, 1, 1.5, 2, 3, 4, 5, 6, 8, 10, 12, and 24 hours postdose. Urine was also collected. […] The supernatant was diluted with injection solvent and analyzed by HPLC with tandem mass spectrometry (LC/MS/MS). […] The calibration curves were linear over the concentration range between 5.00 ng/mL and 2000 ng/mL with a lower limit of quantification (LLOQ) of 5.00 ng/mL.
Using the above data, the following plasma pharmacokinetic parameters were calculated using validated Phoenix WinNonlin, version 6.3 (Pharsight Corporation, Mountain View, Calif.) and are shown (geometric mean 95% CI) in tables 11, 12, and 13 below.
• Cmax: Maximum observed concentration (μg/mL) • Tmax: Time of occurrence of maximum observed concentration (hr) • AUC0-24: Area under plasma concentration-vs-time curve, from time 0 to 24 hours postdose (μg·hr/mL) • C24: Concentration 24 hours post dose (μg/mL) • t1/2: Apparent terminal half-life (hr)

[6] = Urine PK Parameters (Geometric mean, CI 95%), single oral 400 mg racemic Compound (I)
[7] = plasma, geometric mean, single oral 400 mg racemic Compound (I)

Chain of recombinant human CYP2C9 (P11712 whole entry): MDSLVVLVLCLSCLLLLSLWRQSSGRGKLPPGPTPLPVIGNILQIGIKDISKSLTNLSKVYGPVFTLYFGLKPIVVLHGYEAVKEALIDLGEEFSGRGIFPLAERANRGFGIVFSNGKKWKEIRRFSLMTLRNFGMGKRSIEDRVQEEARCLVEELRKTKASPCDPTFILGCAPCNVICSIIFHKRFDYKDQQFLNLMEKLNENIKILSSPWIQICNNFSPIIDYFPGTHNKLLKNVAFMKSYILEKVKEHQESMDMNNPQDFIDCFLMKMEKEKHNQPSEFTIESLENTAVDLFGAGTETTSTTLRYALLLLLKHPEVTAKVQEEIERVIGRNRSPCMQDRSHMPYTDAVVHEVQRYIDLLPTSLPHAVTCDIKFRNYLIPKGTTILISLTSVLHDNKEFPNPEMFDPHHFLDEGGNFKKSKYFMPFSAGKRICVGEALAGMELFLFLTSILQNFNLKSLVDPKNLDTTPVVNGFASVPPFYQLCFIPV

## O=C(O)CSc1nnc(Br)n1-c1ccc(C2CC2)c2ccccc12 (single isomer, unassigned) [Atropisomer 1, (−)-2-(5-bromo-4-(4-cyclopropylnaphthalen-1-yl)-4H-1,2,4-triazol-3-ylthio)acetic acid]
Recombinant human CYP2C9
  Formation of M3c, CYP2C9 mediated, atropisomer 1 versus atropisomer 2: significantly greater
[1]
  M3c level in the presence of valpromide (mEH inhibitor): greatly increased
[2]; 60° C. 4 days
  % Atropisomer 1: 99.8%
  % Atropisomer 2: 0.2%
[2]; 100° C. 4 days
  % Atropisomer 1: 99.6%
  % Atropisomer 2: 0.4%
[2]; rt, 4 days
  % Atropisomer 1: 99.8%
  % Atropisomer 2: 0.2%
[2]; t0 (control)
  % Atropisomer 1: 99.8%
  % Atropisomer 2: 0.2%
[3]
  M3c formation: predominantly formed
[4]; acetonitrile 0.25 mg/mL, t0
  % Atropisomer 1: 99.7%
  % Atropisomer 2: 0.3%
[4]; acetonitrile, 60° C. 4 days
  % Atropisomer 1: 99.7%
  % Atropisomer 2: 0.3%
[5]; [6]
  Ae0-24: 66.3 mg
  CLR0-24: 42.6 mL/min
[5]; male, plasma, po, 400 mg, 0.5 hr postdose, single oral 400 mg Compound (I) racemic mixture, adult male subjects
  concentration at 0.5 h: 65 ng/mL
[5]; male, plasma, po, 400 mg, 1 hr postdose, single oral 400 mg Compound (I) racemic mixture, adult male subjects
  concentration at 1 h: 1720 ng/mL
[5]; male, plasma, po, 400 mg, 1.5 hr postdose, single oral 400 mg Compound (I) racemic mixture, adult male subjects
  concentration at 1.5 h: 3600 ng/mL
[5]; male, plasma, po, 400 mg, 2 hr postdose, single oral 400 mg Compound (I) racemic mixture, adult male subjects
  concentration at 2 h: 4460 ng/mL
[5]; male, plasma, po, 400 mg, 3 hr postdose, single oral 400 mg Compound (I) racemic mixture, adult male subjects
  concentration at 3 hr: 5740 ng/mL
[5]; male, plasma, po, 400 mg, 4 hr postdose, single oral 400 mg Compound (I) racemic mixture, adult male subjects
  concentration at 4 hr: 4560 ng/mL
[5]; male, plasma, po, 400 mg, 5 hr postdose, single oral 400 mg Compound (I) racemic mixture, adult male subjects
  concentration at 5 hr: 3430 ng/mL
[5]; male, plasma, po, 400 mg, 6 hr postdose, single oral 400 mg Compound (I) racemic mixture, adult male subjects
  concentration at 6 hr: 1960 ng/mL
[5]; male, plasma, po, 400 mg, 8 hr postdose, single oral 400 mg Compound (I) racemic mixture, adult male subjects
  concentration at 8 hr: 811 ng/mL
[5]; male, plasma, po, 400 mg, 10 hr postdose, single oral 400 mg Compound (I) racemic mixture, adult male subjects
  concentration at 10 hr: 415 ng/mL
[5]; male, plasma, po, 400 mg, 12 hr postdose, single oral 400 mg Compound (I) racemic mixture, adult male subjects
  concentration at 12 hr: 248 ng/mL
[5]; male, plasma, po, 400 mg, 24 hr postdose, single oral 400 mg Compound (I) racemic mixture, adult male subjects
  concentration at 24 h: 33 ng/mL
[5]; male, plasma, po, 400 mg, Plasma Concentration (Mean), single oral 400 mg racemic Compound (I), read-out: AUC0-24
  AUC(0-t): 27100 ng·h/mL
[5]; male, plasma, po, 400 mg, Plasma Concentration (Mean), single oral 400 mg racemic Compound (I), read-out: Cmax
  Cmax: 6600 ng/mL
[5]; male, plasma, po, 400 mg, plasma, geometric mean, single oral 400 mg racemic Compound (I), read-out: Cmax: Maximum observed concentration
  Cmax: 6230 ng/mL
[5]; male, plasma, po, 400 mg, plasma, geometric mean, single oral 400 mg racemic Compound (I), read-out: t1/2: Apparent terminal half-life (converted)
  half-life: 3.59 h
[5]; male, plasma, po, 400 mg, time 0 hr (prior to dosing), single oral 400 mg Compound (I) racemic mixture, adult male subjects
  concentration at 0 h: 0 ng/mL
[5]; male, plasma, po, 400 mg, read-out: Tmax: Time of occurrence of maximum observed concentration
  Tmax: 3 h
[5]; [7]
  AUC0-24: Area under plasma concentration-vs-time curve, from time 0 to 24 hours postdose: 25.9 µg·h/mL
  C24 h: Concentration 24 hours post dose: 21.6 ng/mL
